In brackets after ≈: the same amount, converted by molar mass. Like-named read-outs stand apart in the source and are kept apart here.
Legend:
[1] = Dissolution test in water, Dissolution Tester, 25° C.
Description: 7.5 Grams of piroxicam/β-cyclodextrin were poured into 150 ml of water at 25° C. under stirring. At predetermined time intervals, samples of 5 ml of suspension were collected and filtered through 0.2μ. […] were diluted 1 to 500 with 0.1 N NaOH in methanol immediately after the filtration. The whole was again filtered through paper.
The amount of piroxicam in the solution was spectrophotometrically determined at 358 nm against a solution of 0.1 N NaOH in methanol.

[2] = tested on: phenylquinone induced writhing; experiment: Phenylquinone induced writhing test (kinetic of the analgesic activity); type: in vivo, female NMRI mice; settings: mouse, oral, 0.5 mg/kg of active substance
Description: The employed experimental model is a slight modification of that described by Siegmund, J. Pharm. Exptl. Ther., 119, 184, 1957.
Female NMRI mice, housed under standard conditions, fastened for 18 hours, were employed as the test animals. Water was available ad libitum.
The compounds under study were orally administered by oesophageal gavage, suspended in an aqueous solution containing 0.5% of carboxymethylcellulose, at a concentration corresponding to 0.5 mg/kg of active substance (piroxicam).

[3] = background; cited from earlier work
[4] = Plasma kinetics of piroxicam in the dog after oral administration; set-up: species or system Beagle dogs; settings: in vivo, 10 mg/kg of active ingredient
Description: The dogs were kept at constant temperature and fastened at least for 17 hours before the beginning of the experiment. Water was available ad libitum.
The two substances to be investigated were orally administered at a dosage corresponding to 10 mg/kg of active ingredient, according to a crossover scheme. The determination of the plasma concentrations of the active ingredient, at a different time intervals since the administration, was carried out by High Pressure Liquid Chromatography (HPLC).

[5] = tested on: carrageenin induced oedema; experiment: Carrageenin induced oedema test in rats (antiinflammatory activity); type: in vivo, male Crl:CD(SD) rats; settings: oral, rat
Description: The antiinflammatory activity was determined by means of the carrageenin induced oedema test, according to the methodology reported by C. A. Winter et al in Proc. Soc. Exptl. […] As the test animals, male Crl:CD(SD) rats, weighing 150-170 g, were employed. The animals were housed under standard conditions and fastened for 18 hours before the beginning of the experiment. Water was available ad libitum.
The obtained results were expressed both as ED50 values, determined in correspondence of the activity peak on the regression line log. of the dosage-% inhibition of the oedema, and as ED30 values, calculated on the regression lines log. of the dosage-% inhibition of the oedema over the controls, determined as the mean value of AUC (area under Curve representing the development of the paw volume in the time).
In addition, it was determined the kinetic of the activity of the two formulations under investigation, by calculating the ED30 values at 2, 3, 4 and 6 hours since the carrageenin injection.

[6] = Gastrolesive action in rats and therapeutic index UD0/ED30; settings: in vivo, rat
Description: The gastrolesive action was tested on rats fastened for 18 hours, through macroscopical examination of the gastric mucosa, 5 hours after the administration of the substances under investigation. For each treatment, the regression lines log. of the dosage-mm of ulceration (single values for each animal) were determined. These lines allowed to calculate, for each compound, the UD0 values i.e., the maximum dosages at which no lesions are observed.
Finally, it was also determined the therapeutic index of the new compound piroxicam/β-cyclodextrin, in comparison with piroxicam. Said index was expressed as the ratio UD0 /ED30 wherein UD0 and ED30 are as above defined.

gastrointestinal mucosa = settings: background; cited from earlier work
[7] = Plasma kinetics of piroxicam in the rabbit after oral administration; type: in vivo, male New Zealand White rabbits
Description: For these investigations, male New Zealand White rabbits, weighing 2.5-3.0 kg were employed. The animals were kept at constant temperature and fastened for the 17 hours preceeding the experiments. Water was given ad libitum. […] The determination of the plasma levels of the active principle, at the different times since the administration, was carried out by High Pressure Liquid Chromatography (HPLC).

[8] = plasma, 10 mg/kg of active ingredient, mean

With `CN1C(C(=O)Nc2ccccn2)=C(O)c2ccccc2S1(=O)=O` [Piroxicam, 4-hydroxy-2-methyl-N-2-pyridyl-2H-1,2-benzothiazine-3-carboxamide-1,1-dioxide] the solubility at 0.5 h [1] was 111 µg/mL (≈ 335 µM), the “time of the activity peak (analgesic)” value [2] was 20 min and the “percentage of the maximum evidenced inhibition (writhing) at 5 minutes” value ([2]; 5 minutes after the administration) was 78%. The solubility in water [3] was “practically insoluble in water”, the Tmax [4] was 1.8 h and the concentration at 0.25 h ([4]; 0.25 h, mean) was 1000 ng/mL. For the same compound, the concentration at 0.5 h ([4]; 0.50 h, mean) was 2800 ng/mL, the concentration at 1 h ([4]; 1 h, mean) was 12700 ng/mL and the concentration at 2 h ([4]; 2 h, mean) was 19400 ng/mL. For the same compound, the concentration at 4 h ([4]; 4 h, mean) was 18900 ng/mL, the concentration at 8 h ([4]; 8 h, mean) was 14200 ng/mL and the concentration at 24 h ([4]; 24 h, mean) was 11500 ng/mL. For the same compound, the concentration at 48 h ([4]; 48 h, mean) was 9200 ng/mL, the concentration at 72 h ([4]; 72 h, mean) was 3000 ng/mL and the AUC(0-t) at 2 h ([4]; mean) was 20400 ng·h/mL. For the same compound, the AUC(0-t) at 72 h ([4]; mean) was 724000 ng·h/mL, the Cmax ([4]; mean) was 20000 ng/mL and the ED30 ([5]; Rat2, 2 h since carrageenin injection, read-out: ED30 at 2 h) was 0.6 mg/kg. The ED30 ([5]; 3 h since carrageenin injection, read-out: ED30 at 3 h) was 1.6 mg/kg, the ED30 ([5]; 4 h since carrageenin injection, read-out: ED30 at 4 h) was 3.1 mg/kg and the ED30 ([5]; 6 h since carrageenin injection, read-out: ED30 at 6 h) was 9.7 mg/kg. The ED30 ([5]; AUC of paw volume in time, dosage as piroxicam, read-out: Activity on AUC ED30) was 2.5 mg/kg, the ED50 ([5]; at the activity peak, dosage as piroxicam) was 2.3 mg/kg and the NOAEL at 5 h ([6]; 5 hours after administration, dosage as piroxicam, read-out: Gastrolesive activity UD0 (maximum dosage at which no lesions are observed)) was 1.1 mg/kg. The selectivity ratio ([6]; piroxicam = 1, read-out: Relative therapeutic index) was 1, the selectivity ratio ([6]; read-out: Absolute therapeutic index (UD0/ED30)) was 0.44 and the “effects on the gastrointestinal mucosa” value (gastrointestinal mucosa) was “responsible of lesive effects on the gastrointestinal mucosa”. The bioavailability [7] was “almost complete bioavailability”, the Tmax ([7]; plasma, 10 mg/kg of active ingredient) was 2.3 h and the concentration at 0.5 h ([7]; plasma, 10 mg/kg of active ingredient, 0.50 h, mean) was 4300 ng/mL. For the same compound, the concentration at 1 h ([7]; plasma, 10 mg/kg of active ingredient, 1 h, mean) was 7400 ng/mL, the concentration at 2 h ([7]; plasma, 10 mg/kg of active ingredient, 2 h, mean) was 10900 ng/mL and the concentration at 4 h ([7]; plasma, 10 mg/kg of active ingredient, 4 h, mean) was 10100 ng/mL. For the same compound, the concentration at 8 h ([7]; plasma, 10 mg/kg of active ingredient, 8 h, mean) was 6500 ng/mL, the concentration at 24 h ([7]; plasma, 10 mg/kg of active ingredient, 24 h, mean) was 300 ng/mL and the AUC(0-t) at 2 h [7, 8] was 13200 ng·h/mL. It also gave an AUC(0-t) at 24 h [7, 8] of 121000 ng·h/mL and a Cmax [7, 8] of 11700 ng/mL.
